# Assay results taken from paper PMC6474902, “Examination of novel 4-aminoquinoline derivatives designed and synthesized by a hybrid pharmacophore approach to enhance their anticancer activities” (Scientific Reports, 2019).
# “And” between values parts separate entries of the source, which are not always exact repeats. Identical values can stand only once. “Also recorded” adds a separate entry of the source.
# Tests used:
# Type in all cases: cell-based, human
# [1] = system: MDA-MB231, MDA-MB468, MCF7 breast cancer cells; 184B5 and MCF10A non-cancer breast cells; assay: SRB assay, panel of breast cancer and non-cancer breast cell lines; conditions: judged from GI50 values of Table 1
# Experimental: The antigrowth effects of 4-piperazinylquinoline sulfonyl analogs on human breast tumor cells was initially evaluated using MDA-MB468 (a PTEN defective, EGFR positive breast adenocarcioma), MDA-MB231 (p53 and pRB mutated, triple-negative breast carcinoma), and MCF7 (p53+/−, invasive ductal breast carcinoma) cell lines. In addition, the cytotoxicity of all the compounds was also evaluated with the 184B5 and MCF10A non-cancer immortalized breast epithelial cell lines, to determine if these newly synthesized compounds have differential cytotoxic effects on cancer and non-cancer cells. The panel of three breast cancer cell lines with different genetic back ground and the well-studied two non-cancer immortalized breast cell lines would provide insights into the efficacy and toxicity of the test compounds in the different genetic background and at different stages of tumor development. The dose response of each cell line was established by determining the number of viable cells after 48 h of continuous drug treatment against seven different concentrations (100 µM to 0.0064 µM) of each compound. The reading of sulphorodamine B (SRB) staining is known to accurately reflect the level of total cellular macromolecules/cell growth/proliferation[6],[23]. […] The data for CQ and cisplatin were included as references. […] The differences in the GI50 values may be attributable to such factors as the nature of the sulfonyl group and the halogen substitution on the 7th position of the 4-piperazinylquinoline ring system, and the genetic and biochemical background of the cell lines.
# Antiproliferative/antigrowth effects were determined by a SRB-based protocol[6],[23]. For a typical screening experiment, 5,000–10,000 cells were inoculated into 100 µL medium per well of a 96-well microtiter plate as described previously. Briefly, after the inoculation, the microtiter plate was incubated at 37 °C, 5% CO2, 95% air and 100% relative humidity for 24 h, prior to addition of experimental drugs. Some of the sample wells were fixed with 25 µL of 50% tricholoroacetic acid (TCA) as a control of the cell population for each cell line at the time of drug addition (Tz). An aliquot of the frozen stock was thawed and diluted to a desired final maximum test-concentration with complete medium. Two to ten-fold serial dilutions were made to provide a total of seven drug concentrations (and a control [C]). Following addition of drugs, the culture plate was incubated for additional 48 h. Cells were fixed in situ by slowly adding 25 µL of ice-cold 50% (w/v) TCA (final concentration, 10% TCA), and were then incubated for 60 min at 4 °C. The supernatant was discarded, and the plate was washed five times with tap water, followed by air-dry. 50 µL of SRB solution at 0.4% (w/v) in 1% acetic acid was added to each well, and the plate was incubated for >30 min at room temperature. Unbound SRB was removed by five washes with tap water, followed by air-drying. The cells “stained” with SRB were solubilized with 10 mM trizma base, and the absorbance was read on an automated plate reader at a wavelength of 515–564 nm. The relative growth rate (%) was calculated for each of the compound concentrations according to the following formula: (Ti−Tz)/(C−Tz)×100
# In the formula, time zero (Tz), control growth (C), and OD for different concentration of tested compounds (Ti). The GI50 for each compound was obtained from a non-linear Sigmoidal dose-response (variable slope) curve which is fitted by GraphPad Prism v.4.03 software. Values were calculated for each of these parameters if the level of activity was reached. However, if the effect was not reached or was exceeded, the value for that parameter was expressed as greater or less than the maximum or minimum concentration tested.
# HeLa S3 cells = assay: Mitotic spindle/centrosome morphology by confocal microscopy; conditions: 5 μM, 6 h after nocodazole synchronization
# Excerpt: To gain further insight into the cellular mechanism involved in the cell cycle arrest, we examined cell morphology in the context of mitotic progress. […] Many of these cells are apparently arrested at the spindle checkpoint stage. Even those cells undergo cell division (probably after prolonged arrest) often segregated with uneven cell sizes (arrows in Fig. 6a).
# Figure 6 Compound 13 causes the formation of multiple spindle poles and uneven segregation. (a) HeLa S3 cells were synchronized at G2/M by nocodazole, followed by incubation for 6 h in drug-free medium in the absence (Sham control) or presence of 5 μM of compound 13. Note the presence of uneven cell sizes (arrows) which were likely generated as a result of nondisjuctional chromosome segregation during mitosis. […] In contrast, the untreated control sample contains very few cells with abnormal spindles.
# All immunocytochemistry experiments were visualized by confocal microscopy using a Zeiss 510 Meta laser scanning microscope (Carl Zeiss) equipped with a 63× objective lens. Three lasers were utilized for excitation with the following band pass filter settings used for detection: Argon 488 nm (band pass 505–530), HeNe 543 nm (long pass 560) and 633 nm (long pass 650). All images were captured and analyzed using LSM 510 software included with the microscope (LSM Image Examiner, Carl Zeiss).
# MCF7 cells = assay: LysoTracker Red staining of lysosomal volume; conditions: 5 μM, 48 h
# Experimental: Since the structure of compound 13 contains the main scaffold of CQ, we examined whether cells treated with compound 13 also results an increase in the lysosomal volume.
# Figure 7 Lysosomal volumes are increased in MCF7 cells treated with compound 13. Lysomes were visualized by treating MCF7 cells with lysoTracker Red for 48 h in the absence (Sham) or presence of 5 μM compound 13. The nuclei of cells in rows a and c were visualized by staining with DRAQ5. Note that rows a, c and e are enlarged images.
# LysoTracker Red sDND-99 staining was carried out as recommended by the manufacturer (Molecular Probes, Eugene, OR). Briefly, cells grown on a cover slip were incubated in 50 nM LysoTracker Red DND-99 in serum-free RPMI-1640 medium for 30 min and then rinsed once with serum-free medium. The cells were washed three times with ice-cold medium, incubated in fresh medium for 45 min at 37 °C, and then washed once with fresh medium. Subsequently, the cells were examined by fluorescence microscopy using two filters (for green and red images) sequentially. Merging the two color images was done using Northern Eclipse software.
# HeLa = assay: Combination with bortezomib, cell death; conditions: 48 h post-treatment; BTZ 6 nM, compound 13 0.75 µM, alone or combined
structure (smiles),measurement,setting,value
"O=[N+]([O-])c1ccc(S(=O)(=O)N2CCN(c3ccnc4cc(Cl)ccc34)CC2)c([N+](=O)[O-])c1 [Compound 13, 7-Chloro-4-(4-(2,4-dinitrophenylsulfonyl)piperazin-1-yl)quinoline]",preferential antigrowth effect on cancer versus non-cancer cells (in words),[1],effective and preferential antigrowth effects on cancer cells; also recorded: stronger antigrowth/antiproliferation activity against cancer cells than non-cancer cells
same,mitotic cells with multiple centrosomes / multiple spindle phenotypes,HeLa S3 cells,44% and 44.4%
same,lysosomal volume,MCF7 cells,substantial increase in lysosomal volume
same,cell death,HeLa,neither 6 nM BTZ nor 0.75 µM of compound 13 resulted in substantial HeLa cell death
